Measurements from PMC8229952, “Coumarin Derivatives Act as Novel Inhibitors of Human Dipeptidyl Peptidase III: Combined In Vitro and In Silico Study” (Pharmaceuticals, 2021).

Experiments:
[1] = biological target: T1, human dipeptidyl peptidase III (hDPP III) (Homo sapiens, UniProt Q9NY33); test: spectrophotometric enzyme assay, % inhibition at […], purified hDPP III; assay type: biochemical; settings: for inhibition at 10 µM: read-out: DPP III Inh. (%)
T1 construct: gene DPP3; C-terminally truncated human DPP III (His-tag removed by TEV)
T1 sequence (Q9NY33 1-726 limits assumed): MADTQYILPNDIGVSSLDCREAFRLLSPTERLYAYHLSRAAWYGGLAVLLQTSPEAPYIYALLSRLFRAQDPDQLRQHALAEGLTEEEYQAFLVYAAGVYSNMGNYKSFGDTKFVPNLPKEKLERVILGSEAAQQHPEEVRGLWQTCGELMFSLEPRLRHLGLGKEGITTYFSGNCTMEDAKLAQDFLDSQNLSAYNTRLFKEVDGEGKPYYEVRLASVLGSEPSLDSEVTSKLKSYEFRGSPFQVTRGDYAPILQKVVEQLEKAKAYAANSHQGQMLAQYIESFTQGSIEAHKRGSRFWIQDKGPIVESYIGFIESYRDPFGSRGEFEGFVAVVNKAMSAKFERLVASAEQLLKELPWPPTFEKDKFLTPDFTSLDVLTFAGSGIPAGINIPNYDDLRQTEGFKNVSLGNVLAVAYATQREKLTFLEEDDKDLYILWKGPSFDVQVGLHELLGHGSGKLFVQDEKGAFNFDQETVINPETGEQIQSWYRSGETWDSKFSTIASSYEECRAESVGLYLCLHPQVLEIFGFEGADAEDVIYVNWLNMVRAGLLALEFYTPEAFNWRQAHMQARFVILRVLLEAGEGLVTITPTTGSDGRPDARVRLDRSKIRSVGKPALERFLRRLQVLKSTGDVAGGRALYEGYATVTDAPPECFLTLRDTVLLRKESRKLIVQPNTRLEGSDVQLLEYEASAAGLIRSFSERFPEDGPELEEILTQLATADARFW

[2] = biological target: T1, human dipeptidyl peptidase III (hDPP III); test: spectrophotometric enzyme assay with Arg2-2NA substrate, purified hDPP III; assay type: biochemical; settings: read-out: DPP III Inh. (%)

Row | SMILES | inhibition at 10 µM [1] | IC50 [2] | further results
1 | O=C(c1ccccc1)c1cc2cc(O)ccc2oc1=O [compound 10, 3-benzoyl; 6-hydroxy (substituted 2H-chromen-2-one)] | 67.5% | – | –
2 | O=C(c1ccccc1)c1cc2ccc(O)cc2oc1=O [compound 12, 3-benzoyl-7-hydroxy-2H-chromen-2-one] | – | 1.1 ± 0.05 µM | –
3 | N#Cc1cc2cc(O)ccc2oc1=O [compound 18, 3-cyano; 6-hydroxy (substituted 2-oxo-2H-chromene-3-carbonitrile)] | 44.6% | – | –
4 | N#Cc1cc2cccc(O)c2oc1=O [compound 21, 3-cyano; 8-hydroxy (substituted 2-oxo-2H-chromene-3-carbonitrile)] | 62.6% | – | –
5 | CCOC(=O)c1cc2cc(O)ccc2oc1=O [compound 27, 3-ethoxycarbonyl; 6-hydroxy (substituted 2H-chromen-2-one)] | – | – | DPP III Inh. (%) ([1]; 10 µM): 66.0
6 | COC(=O)c1cc2ccc(O)cc2oc1=O [compound 36, methyl 7-hydroxy-2-oxo-2H-chromene-3-carboxylate] | – | 2.14 ± 0.06 µM | –
